Biological target: T1, SARM1 (ARM-SAM-TIR, full length SARM1) (Homo sapiens, UniProt Q6SZW1)
T1 sequence (Q6SZW1 with tags, fused parts or gaps): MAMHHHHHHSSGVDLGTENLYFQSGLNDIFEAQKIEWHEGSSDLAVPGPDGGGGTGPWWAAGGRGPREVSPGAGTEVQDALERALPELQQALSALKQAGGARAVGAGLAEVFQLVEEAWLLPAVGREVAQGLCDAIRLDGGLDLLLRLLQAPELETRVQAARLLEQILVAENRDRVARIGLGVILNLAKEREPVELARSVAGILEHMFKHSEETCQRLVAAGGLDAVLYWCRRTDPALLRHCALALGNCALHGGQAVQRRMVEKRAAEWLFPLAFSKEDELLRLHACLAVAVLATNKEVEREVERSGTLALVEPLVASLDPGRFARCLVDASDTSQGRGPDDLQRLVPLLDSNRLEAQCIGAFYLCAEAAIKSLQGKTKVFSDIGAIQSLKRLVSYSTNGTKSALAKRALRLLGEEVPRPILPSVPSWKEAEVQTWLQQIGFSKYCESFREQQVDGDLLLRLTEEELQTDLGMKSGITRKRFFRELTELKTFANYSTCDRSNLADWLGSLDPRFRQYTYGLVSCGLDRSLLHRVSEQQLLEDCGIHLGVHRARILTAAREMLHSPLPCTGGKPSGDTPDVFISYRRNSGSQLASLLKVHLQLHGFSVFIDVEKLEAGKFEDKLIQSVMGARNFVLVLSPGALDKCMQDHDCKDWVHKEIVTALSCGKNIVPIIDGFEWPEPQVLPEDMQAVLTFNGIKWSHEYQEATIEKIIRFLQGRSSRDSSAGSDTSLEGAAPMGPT
Test: biochemical
Conditions: SARM1 IC50 (nM), ARM-SAM-TIR lysate 5 μg/mL from NRK1-HEK293T cells, 2 h pre-incubation, 5 uM NAD+, 2 hr room temperature
Experimental: This assay makes use of full length SARM1, which encompasses the ARM, SAM and TIR domains.
Preparation of ARM-SAM-TIR lysate (STL)
NRK1-HEK293T cells were seeded onto 150 cm^2 plates at 20×10^6 cells per plate. The next day, the cells were transfected with 15 g ARM-SAM-TIR expression plasmid, SEQ ID NO: 1.
The cultures were supplemented with 1 mM NR at time of transfection to minimize toxicity from ARM-SAM-TIR overexpression. Forty-eight hours after transfection, cells were harvested, pelleted by centrifugation at 1,000 rpm (Sorvall ST 16R centrifuge, Thermo Fisher), and washed once with cold PBS (0.01 M phosphate buffered saline NaCl 0.138 M; KCl 0.0027 M; pH 7.4). The cells were resuspended in PBS with protease inhibitors (cOmplete™ protease inhibitor cocktail, Roche product #11873580001) and cell lysates were prepared by sonication (Branson Sonifer 450, output=3, 20 episodes of stroke). The lysates were centrifuged (12,000×g for 10 min at 4° C.) to remove cell debris and the supernatants (containing ARM-SAM-TIR protein) were stored at −80° C. for later use in the in vitro ARM-SAM-TIR NADase assay (see below). Protein concentration was determined by the Bicinchoninic (BCA) method and used to normalize lysate concentrations.
ARM-SAM-TIR IC50 assay of Formula I compounds.
The enzymatic assay was performed in a 384-well polypropylene plate in Dulbecco's PBS buffer in a final assay volume of 20 μL. ARM-SAM-TIR lysate with a final concentration of 5 μg/mL was pre-incubated with the respective compound at 1% DMSO final assay concentration over 2h at room temperature. The reaction was initiated by addition of 5 uM final assay concentration of NAD+ as substrate. After a 2 hr room temperature incubation, the reaction was terminated with 40 μL of stop solution of 7.5% trichloroactetic acid in acetonitrile. The NAD+ and ADPR concentrations were analyzed by a RapidFire High Throughput Mass Spectrometry System (Agilent Technologies, Santa Clara, Calif.) using an API4000 triple quadrupole mass spectrometer (AB Sciex Framingham, Mass.).

Row | SMILES | IC50 [nM]
1 | O=C1C(Cc2ccc(F)c(F)c2)CCCN1c1cc(-c2ccncc2)n[nH]1 (stereo not shown) [Compound I-22] | < 50
2 | O=C1C(Cc2ccc(Cl)c(F)c2)CCCN1c1cc(-c2ccncc2)n[nH]1 (single isomer, unassigned) [I-20* (peak 1)] | < 50
3 | [2H]C([2H])(c1ccc(Cl)nc1)C1([2H])C(=O)N(c2cc(-c3ccncc3)n[nH]2)C([2H])([2H])C([2H])([2H])C1([2H])[2H] (single isomer, unassigned) [I-79* (peak 2)] | 101 to 500
4 | N#Cc1cc(CC2CCCN(c3cc(-c4ccncc4)n[nH]3)C2=O)ccc1Cl (stereo not shown) [Compound I-102] | 51 to 100
5 | O=C1C(Cc2ccc(F)cc2)CCN1c1nnc(-c2ccncc2)[nH]1 (single isomer, unassigned) [I-7* (peak 2)] | < 50
6 | O=C1C(Cc2ccc(Cl)nc2)CCN1c1[nH]nc(-c2ccncc2)c1Cl (single isomer, unassigned) [I-34* (peak 1)] | < 50
7 | O=C1C(Cc2ccc(Cl)cc2)CCCN1c1cc(-c2ccncc2)n[nH]1 (single isomer, unassigned) [I-19* (peak 1)] | < 50
8 | O=C1C(Cc2ccc(F)c(F)c2)CCCN1c1nnc(-c2ccncc2)[nH]1 (stereo not shown) [Compound I-13] | < 50
9 | O=C1C(Cc2ccc(Cl)cc2)CCN1c1nnc(-c2ccncc2)[nH]1 (stereo not shown) [Compound I-4] | < 50
10 | O=C1C(Cc2ccc(F)nc2)CCN1c1nnc(-c2ccncc2)[nH]1 (stereo not shown) [Compound I-39] | 101 to 500
11 | Cc1c(-c2ccncc2)n[nH]c1N1CCC(Cc2ccc(F)c(F)c2)C1=O (single isomer, unassigned) [I-49* (peak 1)] | 101 to 500
12 | O=C1C(Cc2ccc(Cl)nc2)CCCN1c1cc(-c2ccncc2)n[nH]1 (stereo not shown) [Compound I-21] | < 50
13 | Cc1c(-c2ccncc2)n[nH]c1N1CCN[C@@H](Cc2ccc(Cl)cc2)C1=O [Compound I-3-a] | > 1000
14 | O=C1C(Cc2ccc(Cl)c(F)c2)CCN1c1nnc(-c2ccncc2)[nH]1 (single isomer, unassigned) [I-8* (peak 1)] | < 50
15 | N#Cc1c(-c2ccncc2)n[nH]c1N1CCC(Cc2ccc(Cl)nc2)C1=O (stereo not shown) [Compound I-51] | 51 to 100
16 | Cc1c(-c2ccncc2)n[nH]c1N1CCC(Cc2cnc(Cl)c(F)c2)C1=O (stereo not shown) [Compound I-41] | 101 to 500
17 | N#Cc1ccc(CC2CCCN(c3nc(-c4ccncc4)n[nH]3)C2=O)cc1 (stereo not shown) [Compound I-99] | 101 to 500
18 | O=C1C(Cc2ccc(F)nc2)CCCN1c1nnc(-c2ccncc2)[nH]1 (stereo not shown) [Compound I-23] | < 50
19 | N#Cc1ccc(CC2CCN(c3[nH]nc(-c4ccncc4)c3F)C2=O)cc1F (single isomer, unassigned) [I-25* (peak 1)] | 101 to 500
20 | O=C1C(Cc2ccc(Cl)nc2)CCCN1c1nnc(-c2ccncc2)[nH]1 (single isomer, unassigned) [I-55* (peak 1)] | 51 to 100
21 | O=C1C(Cc2cnc(Cl)c(F)c2)CCN1c1nnc(-c2ccncc2)[nH]1 (stereo not shown) [Compound I-18] | 51 to 100
22 | O=C1C(Cc2ccc(Cl)nc2)CCN1c1nnc(-c2ccncc2)[nH]1 (stereo not shown) [Compound I-9] | 101 to 500

Row | SMILES | IC50 [nM]
23 | Cc1c(-c2ccncc2)n[nH]c1N1CCC(Cc2ccc(Cl)nc2)C1=O (single isomer, unassigned) [I-48* (peak 1)] | 101 to 500
24 | O=C1C(Cc2cnc(Cl)c(F)c2)CCCN1c1nnc(-c2ccncc2)[nH]1 (stereo not shown) [Compound I-24] | < 50
25 | N[C@H]1CC(Cc2ccc(Cl)nc2)C(=O)N(c2cc(-c3ccncc3)n[nH]2)C1 (stereo partly shown) [Compound I-60] | 501 to 1000
26 | N[C@H]1CC(Cc2ccc(Cl)nc2)C(=O)N(c2cc(-c3ccncc3)n[nH]2)C1 (single isomer, unassigned) [I-60* (peak 1)] | > 1000
27 | N#Cc1ccc(CC2CCN(c3nc(-c4ccncc4)n[nH]3)C2=O)cn1 (stereo not shown) [Compound I-111] | > 1000
28 | Cc1c(N2CCC(Cc3ccc(Cl)cc3)C2=O)n[nH]c1-c1ccncc1 (stereo not shown) [Compound I-6] | 51 to 100
29 | O=C1C(Cc2ccc(F)nc2)CCN1c1[nH]nc(-c2ccncc2)c1F (single isomer, unassigned) [I-33* (peak 2)] | < 50
30 | CC1(Cc2ccc(Cl)cc2)CCCN(c2nc(-c3ccncc3)n[nH]2)C1=O (stereo not shown) [Compound I-54] | 101 to 500
31 | O=C1C(Cc2ccc(F)cc2)CCN1c1nnc(-c2ccncc2)[nH]1 (stereo not shown) [Compound I-7] | 101 to 500
32 | Cc1c(N2CCC(Cc3ccc(Cl)cc3)C2=O)n[nH]c1-c1ccncc1 (single isomer, unassigned) [I-6* (peak 1)] | 51 to 100
33 | O=C1C(Cc2ccc(Cl)cc2)CCN1c1cc(-c2ccncc2)n[nH]1 (stereo not shown) [Compound I-15] | < 50
34 | O=C1C(Cc2ccc(Cl)cc2)OCCN1c1cc(-c2ccncc2)n[nH]1 (stereo not shown) [Compound I-47] | 51 to 100
35 | CC1(Cc2ccc(Cl)cc2)CCCN(c2nc(-c3ccncc3)n[nH]2)C1=O (single isomer, unassigned) [I-54* (peak 2)] | 101 to 500
36 | N#Cc1cc(CC2CCCN(c3nc(-c4ccncc4)n[nH]3)C2=O)ccc1F (stereo not shown) [Compound I-101] | 101 to 500
37 | Cc1c(-c2ccncc2)n[nH]c1N1CCCC(Cc2ccc(Cl)cc2)C1=O (stereo not shown) [Compound I-50] | > 1000
38 | N#Cc1ccc(CC2CCN(c3nnc(-c4ccncc4)[nH]3)C2=O)cc1F (stereo not shown) [Compound I-26] | 101 to 500
39 | O=C1C(Cc2ccc(Cl)nc2)CCCCN1c1cc(-c2ccncc2)n[nH]1 (stereo not shown) [Compound I-40] | 101 to 500
40 | O=C1C(Cc2ccc(F)nc2)CCN1c1[nH]nc(-c2ccncc2)c1Cl (single isomer, unassigned) [I-32* (peak 2)] | < 50
41 | CC1(Cc2ccc(Cl)cc2)CCN(c2nc(-c3ccncc3)n[nH]2)C1=O (stereo not shown) [Compound I-45] | 501 to 1000
42 | O=C1C(Cc2ccc(C(F)(F)F)nc2)CCCN1c1nc(-c2ccncc2)n[nH]1 (stereo not shown) [Compound I-97] | 101 to 500
43 | N#Cc1ccc(CC2CCN(c3[nH]nc(-c4ccncc4)c3F)C2=O)cc1F (single isomer, unassigned) [I-25* (peak 2)] | < 50
44 | O=C1N(c2nc(-c3ccncc3)n[nH]2)CCC1(F)Cc1ccc(Cl)nc1 (stereo not shown) [Compound I-42] | > 1000

Row | SMILES | IC50 [nM]
45 | O=C1C(Cc2ccc(F)nc2)CCN1c1[nH]nc(-c2ccncc2)c1F (single isomer, unassigned) [I-33* (peak 1)] | 51 to 100
46 | O=C1N(c2nc(-c3ccncc3)n[nH]2)CCC1(F)Cc1ccc(Cl)nc1 (single isomer, unassigned) [I-42* (peak 1)] | > 1000
47 | O=C1C(Cc2ccc(Cl)nc2)CNN1c1cc(-c2ccncc2)n[nH]1 (stereo not shown) [Compound I-30] | > 1000
48 | O=C1C(Cc2ccc(Cl)cc2)OCCN1c1cc(-c2ccncc2)n[nH]1 (single isomer, unassigned) [I-47* (peak 2)] | > 1000
49 | N[C@H]1CC(Cc2ccc(Cl)nc2)C(=O)N(c2cc(-c3ccncc3)n[nH]2)C1 (single isomer, unassigned) [I-60* (peak 2)] | 101 to 500
50 | O=C1C(Cc2ccc(Cl)nc2)CCCN1c1cc(-c2ccncc2)n[nH]1 (single isomer, unassigned) [I-21* (peak 1)] | 101 to 500
51 | O=C1[C@H](Cc2ccc(Cl)cc2)NCCN1c1cc(-c2ccncc2)n[nH]1 [Compound I-1-a] | 101 to 500
52 | CN1CCN(c2cc(-c3ccncc3)n[nH]2)C(=O)[C@@H]1Cc1ccc(Cl)cc1 [Compound I-2-a] | > 1000
53 | O=C1C(Cc2ccc(Cl)nc2)CCCN1c1cc(-c2ccncc2)n[nH]1 (single isomer, unassigned) [I-21* (peak 2)] | < 50
54 | O=C1C(Cc2ccc(Cl)cc2)NCN1c1cc(-c2ccncc2)n[nH]1 (stereo not shown) [Compound I-59] | 101 to 500
55 | O=C1C(Cc2cnc(Cl)c(F)c2)CCCN1c1cc(-c2ccncc2)n[nH]1 (single isomer, unassigned) [I-66* (peak 1)] | < 50
56 | O=C1[C@@H](Cc2ccc(Cl)cc2)NCCN1c1cc(-c2ccncc2)n[nH]1 [Compound I-1-b] | > 1000
57 | O=C1C(Cc2ccc(F)c(F)c2)CCN1c1nnc(-c2ccncc2)[nH]1 (single isomer, unassigned) [I-11* (peak 1)] | < 50
58 | O=C1C(Cc2ccc(Cl)nc2)CCN1c1[nH]nc(-c2ccncc2)c1Cl (stereo not shown) [Compound I-34] | < 50
59 | CC1(Cc2ccc(Cl)cc2)CCCN(c2nc(-c3ccncc3)n[nH]2)C1=O (single isomer, unassigned) [I-54* (peak 1)] | 501 to 1000
60 | O=C1C(Cc2ccc(Cl)nc2)CCCN1c1nnc(-c2ccncc2)[nH]1 (stereo not shown) [Compound I-55] | 51 to 100
61 | O=C1C(Cc2ccc(Cl)cc2)CNCCN1c1nc(-c2ccncc2)n[nH]1 (single isomer, unassigned) [I-38* (peak 2)] | > 1000
62 | O=C1C(Cc2ccc(Cl)c(F)c2)CCCN1c1nnc(-c2ccncc2)[nH]1 (stereo not shown) [Compound I-10] | < 50
63 | N#Cc1c(-c2ccncc2)n[nH]c1N1CCCC(Cc2ccc(Cl)cc2)C1=O (stereo not shown) [Compound I-56] | 101 to 500
64 | N#Cc1ccc(CC2CCN(c3cc(-c4ccncc4)n[nH]3)C2=O)cc1F (single isomer, unassigned) [I-37* (peak 1)] | 51 to 100
